According to patent US10242153B2, “Method for determining the risk profile of neoplastic tissue” (NOVAZOI THERANOSTICS, priority 2014, dated 2019):

Experiments:
HeLa cells = assay: Peak subG1 fraction by flow cytometry after declustering drugs, HeLa cells; format: cell-based
Method: (§1) To evaluate the impact of putative declustering drugs on cell cycle progression and hypodiploidy (<2N DNA content, which may indicate apoptotic cells), MDA-MB-231 (231), PC3, and HeLa cells were treated with different concentrations of declustering drugs, stained with propidium iodide, labeled with anti-MPM2 antibody, and then assessed by flow cytometry at multiple time points over 48 hr. […] The duration, highest degree, and rapidity of onset of MA varied between drugs, drug concentrations, and cell lines (data not shown). In general, the maximum MA achieved was less pronounced in Nos- and PJ-treated cells. Drug-induced onset of MA was corroborated by substantial increases in cyclin B1 levels in all cell lines. For most cases, prolonged MA (˜24 hr in duration) was followed by a substantial increase in the subG1 population fraction. […] Instances where the subGl fraction was elevated without cleaved caspase-3 may either represent caspase-independent cell death or the presence of hypodiploid cells whose fate is unclear. In general, no consistent associations between the extent, duration, or timing of MA within drugs or across cell lines was found.

PC3 cells = assay: Peak subG1 fraction by flow cytometry after declustering drugs, PC3 cells; format: cell-based
Method: as §1

[1] = test system: mammary fibrocystic (MCF10A) cells; assay: Peak subG1 fraction after declustering drugs, non-malignant MCF10A cells; format: cell-based; conditions: for peak subG1 percent compared to controls: MCF10A cells; for Peak subG1 percents over 48 h: MCF10A
Method: as §1
(§2) To determine whether the CA-inducing activity of declustering drugs is restricted to cancer cells, two non-malignant cell lines, mammary fibrocystic (MCF10A) cells and adult human dermal fibroblasts (HDFs) were treated with these drugs. […] In comparison, 10 and 25 µM RBN increased peak CA over controls in interphase cells (p<0.001 and p=0.001, respectively), with the lower concentration dramatically augmenting peak CA to 56% of cells versus 15% for the higher dose (FIG. 13, panel B).
Importantly, a therapeutic window exists for several of these agents at the concentrations and in the cell lines tested compared to cancer cells.

MCF10A cells = assay: Centrosome amplification (CA) by microscopy, MCF10A cells; format: cell-based
Method: Consequently, CA was assessed in cultures treated with different concentrations of declustering drugs for 6, 12, 18, or 24 h and untreated controls via microscopy. Centrosomes were identified by γ-tubulin and centrin-2 colocalization at discrete foci.
as §2

[2] = test system: MDA-MB-231 (231), PC3, and HeLa cells; assay: Mitotic arrest (MA) metrics by flow cytometry (anti-MPM2) across cell lines; format: cell-based
From the text: FIG. 10 depicts mitotic arrest metrics across cell lines for each declustering drug. […] A lack of box in the plot occurs when the median is very close (or equal) to the inter-quartile range limits, in which case notch is shown with a default height and starting point of whisker line extension indicates 25% or 75% position. Because the coarse-grained data are integers and the size of the data sets are small (n<8), in some cases the median, lower or upper inter-quartile range values, or the max or min values, may coincide in some combination. This figure broadly visualizes clustering and correlation in the coarse-grained data. For instance, non-integer values have no intrinsic meaning but, for instance, a median value of 4.4 indicates a concentration of categories recorded in categories 4 or 5. […] TRH=“time reach highest” value; CTP=“consecutive time points,” MA_totCTP=sum(MA_SnCTP for n=2 . . . 5).
To evaluate the impact of putative declustering drugs on cell cycle progression and hypodiploidy (<2N DNA content, which may indicate apoptotic cells), MDA-MB-231 (231), PC3, and HeLa cells were treated with different concentrations of declustering drugs, stained with propidium iodide, labeled with anti-MPM2 antibody, and then assessed by flow cytometry at multiple time points over 48 hr. […]

N1E-115 cells [3] = assay: Neuritogenesis (neurite extension) in serum-starved N1E-115 cells; format: cell-based, murine; conditions: 48 h, PJ-34 10 μM, Paclitaxel 0.05 μM
Method: N1E-115 cells grown in serum-starved (SS) medium were evaluated to determine the extent of neurite formation after 48 h of treatment with RedBr-Nos (5 μM), Griseofulvin (10 μM), PJ-34 (10 μM), Paclitaxel (0.05 μM) treatment or untreated control cells (i.e., serum-starved medium (SS) alone). Panels Ai and Aii depict quantitative bar graphs representing the average length of neurites and percentage of population of cells showing neurite length >10 μm, respectively. A hundred cells were counted in each case. […] Panel B depicts an immunoblot showing CLASP1 expression levels in control (C) and CLASP1 siRNA-transfected N1E-115 cells.
Neuritogenesis is a process in nerve cells involving the extension of polarized, elongated neurites. N1E-115 cells usually extend only one major neurite per cell, which can vary in length from 5 to 500 μm. The growth cones of the neurites serve as primary focal points of motility. The effect of declustering agents on cell motility was evaluated by assessing the length and frequency of neurites formed in a serum-free medium on a laminin-coated surface.

N1E-115 cells [4] = assay: Golgi (GM130) and γ-tubulin co-immunostaining of drug-treated N1E-115 cells; format: cell-based, murine; conditions: data not shown
From the text: The Golgi, which is primarily responsible for posttranslational modification and protein sorting, also functions as a microtubule-organizing center (MTOC). It has been hypothesized that supernumerary centrosomes may better organize the Golgi to enhance directional cell migration. To investigate what happens to the Golgi upon declustering drug-induced dispersal of the interphase centrosomal cluster, drug-treated N1E-115 cells were co-immunostained with GM130 (a cis-Golgi matrix protein crucial for maintaining its structure) and γ-tubulin.

[5] = test system: PLK4, Cyclin E, and Aurora A; assay: Western blotting of markers of centrosome amplification; format: cell-based; conditions: PC3 cells, 25 μM

Row | Compound | Peak subG1 percents over 48 h (HeLa cells; 10 μM) [%] | maximum (peak) subG1 fraction relative to control (HeLa cells; 10 μM) [× control] | Peak subG1 percents over 48 h (HeLa cells; 25 μM) [%] | Peak subG1 percents over 48 h (PC3 cells; 10 μM) [%] | Peak subG1 percents over 48 h (PC3 cells; 25 μM) [%] | peak subG1 percent compared to controls [1] | Peak subG1 percents over 48 h ([1]; 10 μM) [%] | Peak subG1 percents over 48 h ([1]; 25 μM) [%] | peak extent of CA (MCF10A cells; interphase MCF10A cells, 10 μM) | peak extent of CA versus controls (MCF10A cells; interphase and mitotic MCF10A cells, 25 μM) | mean time to peak MA (MA:TRH) ([2]; coarse-grained categories) [h] | inhibition of neurite extension (N1E-115 cells [3]) | fragmentation of the interphase Golgi complex (N1E-115 cells [4]) | maximum (peak) subG1 fraction relative to control (PC3 cells; 10 μM) [× control] | peak subG1 / toxicity in MCF10A cells versus cancer cell lines ([1]; 10 μM) | susceptibility / toxicity in MCF10A cells versus cancer cell lines ([1]; 25 μM) | CA / peak extent of CA versus control levels (MCF10A cells; interphase and mitotic MCF10A cells, both concentrations (10 and 25 μM), over 24 h) | peak MA (MA:HR), cells in MA ([2]; category near "4") [%] | expression of Cyclin E and PLK4 [5]
1 | CN(C)CC(=O)Nc1ccc2[nH]c(=O)c3ccccc3c2c1 [PJ, PJ-34] | 48.5 | 4.8 | 64.4 | 62.4 | 48.4 | did not cause a significant increase | 6.9 | 9.1 | 8 % of cells | increased the peak extent of CA in interphase and mitotic cells | ~12 | moderate inhibition | interphase Golgi complex fragmented |  |  |  |  |  | 
2 | reduced-9-bromonoscapine [RBN] | 54.1 | 9 | 75.6 | 80.7 | 73.0 | did increase peak SubG1 | 36.4 | 44.0 |  |  |  |  | most robust effect | 8 | smaller peak subG1 in MCF10A cells as compared to 231 cells | much greater increases in toxicity to 231 and PC3 cells | significantly increased the peak extent of CA | ≥ 30 | increased Cyclin E and PLK4 expression
